Source: paper PMC7104248, “Discovery of Taniborbactam (VNRX-5133): A Broad-Spectrum Serine- and Metallo-β-lactamase Inhibitor for Carbapenem-Resistant Bacterial Infections” (Journal of Medicinal Chemistry, 2019)
Converted amounts (≈) assume the structure as drawn. Like-named read-outs stand apart in the source and are kept apart here.

What was measured:
[1] = target: T1, IMP-1 (Serratia marcescens, UniProt P52699); test: β-lactamase inhibition assay, nitrocefin substrate; assay type: biochemical
T1 sequence (P52699 19-246 limits assumed): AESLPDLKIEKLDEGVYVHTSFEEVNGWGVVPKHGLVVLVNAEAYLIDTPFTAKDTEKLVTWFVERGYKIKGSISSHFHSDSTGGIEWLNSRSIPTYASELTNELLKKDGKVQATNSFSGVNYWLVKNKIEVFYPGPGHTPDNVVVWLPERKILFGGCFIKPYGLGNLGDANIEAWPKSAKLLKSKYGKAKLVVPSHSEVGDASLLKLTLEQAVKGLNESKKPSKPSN

[2] = target: NDM-1 (Klebsiella pneumoniae, UniProt C7C422); test: biochemical
Chain of NDM-1 (C7C422 29-270 limits assumed): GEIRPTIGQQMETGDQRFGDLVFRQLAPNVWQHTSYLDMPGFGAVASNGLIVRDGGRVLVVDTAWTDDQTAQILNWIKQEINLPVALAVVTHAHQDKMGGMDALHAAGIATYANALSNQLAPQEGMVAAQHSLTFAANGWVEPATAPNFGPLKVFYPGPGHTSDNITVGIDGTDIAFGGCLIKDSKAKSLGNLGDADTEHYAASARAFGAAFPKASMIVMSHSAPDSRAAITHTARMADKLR

[3] = test system: E. cloacae 144200 (p99 AmpC); test: intrinsic antibacterial activity, MIC; assay type: cell-based; details: Enterobacter cloacae
[4] = target: OXA-48 (Klebsiella pneumoniae, UniProt Q6XEC0); details: read-out: IC50 OXA-48, literature value in parentheses; cited from earlier work
Chain of OXA-48 (Q6XEC0 23-265, looked up): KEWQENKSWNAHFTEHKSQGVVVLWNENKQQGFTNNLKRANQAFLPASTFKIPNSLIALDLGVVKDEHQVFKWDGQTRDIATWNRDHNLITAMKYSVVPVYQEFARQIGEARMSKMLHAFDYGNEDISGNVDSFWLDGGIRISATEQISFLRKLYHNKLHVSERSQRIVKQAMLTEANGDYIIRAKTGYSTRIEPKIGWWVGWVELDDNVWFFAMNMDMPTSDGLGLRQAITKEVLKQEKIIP

[5] = test system: 14 Gram-negative pathogens expressing class B enzymes (VIM-1, VIM-2, VIM-4, NDM-1); assay type: cell-based; details: 14 MBL-producing strains
[6] = target: hERG potassium channel (Homo sapiens, UniProt Q12809); test: selectivity panel at 100 μM
Chain of hERG potassium channel (Q12809 whole entry): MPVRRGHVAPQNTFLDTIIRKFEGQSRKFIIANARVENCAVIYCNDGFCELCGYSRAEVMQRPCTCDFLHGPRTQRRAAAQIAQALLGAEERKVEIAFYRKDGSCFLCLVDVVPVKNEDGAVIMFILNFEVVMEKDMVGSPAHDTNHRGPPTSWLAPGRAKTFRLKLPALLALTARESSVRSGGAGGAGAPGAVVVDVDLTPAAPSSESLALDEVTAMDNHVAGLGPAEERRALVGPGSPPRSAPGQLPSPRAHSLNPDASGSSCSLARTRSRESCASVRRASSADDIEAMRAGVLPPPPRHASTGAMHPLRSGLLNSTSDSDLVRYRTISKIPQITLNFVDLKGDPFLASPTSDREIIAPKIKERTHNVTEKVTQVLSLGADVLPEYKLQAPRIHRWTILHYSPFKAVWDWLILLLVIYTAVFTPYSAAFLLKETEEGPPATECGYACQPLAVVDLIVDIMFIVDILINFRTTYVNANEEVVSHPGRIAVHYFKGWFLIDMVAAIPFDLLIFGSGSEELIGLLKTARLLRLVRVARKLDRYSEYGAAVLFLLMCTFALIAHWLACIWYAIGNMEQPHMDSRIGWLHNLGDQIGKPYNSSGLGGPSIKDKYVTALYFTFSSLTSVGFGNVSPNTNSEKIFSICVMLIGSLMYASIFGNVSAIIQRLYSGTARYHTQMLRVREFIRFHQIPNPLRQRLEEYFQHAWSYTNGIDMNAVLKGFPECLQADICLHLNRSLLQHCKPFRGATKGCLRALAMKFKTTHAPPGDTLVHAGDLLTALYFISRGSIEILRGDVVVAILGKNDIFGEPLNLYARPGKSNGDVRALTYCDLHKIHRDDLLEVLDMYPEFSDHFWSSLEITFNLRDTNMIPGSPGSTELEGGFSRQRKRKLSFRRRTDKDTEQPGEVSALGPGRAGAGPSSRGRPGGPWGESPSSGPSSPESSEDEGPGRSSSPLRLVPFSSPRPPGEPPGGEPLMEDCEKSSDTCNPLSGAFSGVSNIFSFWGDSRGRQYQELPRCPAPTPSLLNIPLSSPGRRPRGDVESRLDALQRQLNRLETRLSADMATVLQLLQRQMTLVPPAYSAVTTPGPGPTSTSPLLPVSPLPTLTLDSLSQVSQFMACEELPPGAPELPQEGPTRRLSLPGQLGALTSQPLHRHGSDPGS
Source text: (§1) The panel included serine proteases (i.e., cathepsin G, chymotrypsin, Factor Xa, trypsin, and neutrophil elastase 2), metalloproteinases (MMP-1, -2, -3, and -9), cytochrome P450s (1A2, 2C9, 2C19, 2D6, and 3A4), and the hERG potassium channel.

[7] = test system: panel of 50 human enzymes and receptors; test: selectivity panel at 100 μM
Source text: as §1

[8] = test system: L1; set-up: method as in PMID 31454231; details: cited from earlier work
[9] = target: cytochrome P450 3A4 (Homo sapiens, UniProt P08684); test: selectivity panel at 100 μM; assay type: in vitro ADME
Chain of cytochrome P450 3A4 (P08684 whole entry): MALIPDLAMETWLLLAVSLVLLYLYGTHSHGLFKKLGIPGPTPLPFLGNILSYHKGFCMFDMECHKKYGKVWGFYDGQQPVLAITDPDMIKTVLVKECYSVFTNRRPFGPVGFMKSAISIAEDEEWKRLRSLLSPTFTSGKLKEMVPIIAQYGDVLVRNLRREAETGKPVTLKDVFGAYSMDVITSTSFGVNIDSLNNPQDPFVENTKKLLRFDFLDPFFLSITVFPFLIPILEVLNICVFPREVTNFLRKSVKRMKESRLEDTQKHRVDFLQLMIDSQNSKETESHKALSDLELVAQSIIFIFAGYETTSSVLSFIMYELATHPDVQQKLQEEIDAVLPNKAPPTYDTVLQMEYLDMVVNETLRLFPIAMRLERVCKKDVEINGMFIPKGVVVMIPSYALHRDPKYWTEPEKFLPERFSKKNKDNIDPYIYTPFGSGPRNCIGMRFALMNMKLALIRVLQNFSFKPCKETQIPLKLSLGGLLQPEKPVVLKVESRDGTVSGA
Source text: as §1

[10] = target: cytochrome P450 1A2 (Homo sapiens, UniProt P05177); test: selectivity panel at 100 μM; assay type: in vitro ADME
Chain of cytochrome P450 1A2 (P05177 whole entry): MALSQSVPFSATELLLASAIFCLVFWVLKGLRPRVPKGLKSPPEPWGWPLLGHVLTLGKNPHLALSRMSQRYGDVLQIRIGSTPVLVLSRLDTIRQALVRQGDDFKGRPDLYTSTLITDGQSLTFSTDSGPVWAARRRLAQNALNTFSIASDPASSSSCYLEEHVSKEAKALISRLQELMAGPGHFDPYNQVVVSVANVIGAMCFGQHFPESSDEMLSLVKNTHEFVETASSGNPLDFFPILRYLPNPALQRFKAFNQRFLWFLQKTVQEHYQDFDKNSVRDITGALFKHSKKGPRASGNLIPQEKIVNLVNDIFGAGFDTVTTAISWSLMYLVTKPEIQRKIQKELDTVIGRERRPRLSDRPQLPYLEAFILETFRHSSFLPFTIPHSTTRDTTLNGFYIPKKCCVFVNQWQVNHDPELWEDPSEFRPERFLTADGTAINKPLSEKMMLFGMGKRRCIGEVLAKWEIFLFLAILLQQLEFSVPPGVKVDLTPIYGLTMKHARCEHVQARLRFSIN
Source text: as §1

[11] = target: cytochrome P450 2D6 (Homo sapiens, UniProt P10635); test: selectivity panel at 100 μM; assay type: in vitro ADME
Chain of cytochrome P450 2D6 (P10635 whole entry): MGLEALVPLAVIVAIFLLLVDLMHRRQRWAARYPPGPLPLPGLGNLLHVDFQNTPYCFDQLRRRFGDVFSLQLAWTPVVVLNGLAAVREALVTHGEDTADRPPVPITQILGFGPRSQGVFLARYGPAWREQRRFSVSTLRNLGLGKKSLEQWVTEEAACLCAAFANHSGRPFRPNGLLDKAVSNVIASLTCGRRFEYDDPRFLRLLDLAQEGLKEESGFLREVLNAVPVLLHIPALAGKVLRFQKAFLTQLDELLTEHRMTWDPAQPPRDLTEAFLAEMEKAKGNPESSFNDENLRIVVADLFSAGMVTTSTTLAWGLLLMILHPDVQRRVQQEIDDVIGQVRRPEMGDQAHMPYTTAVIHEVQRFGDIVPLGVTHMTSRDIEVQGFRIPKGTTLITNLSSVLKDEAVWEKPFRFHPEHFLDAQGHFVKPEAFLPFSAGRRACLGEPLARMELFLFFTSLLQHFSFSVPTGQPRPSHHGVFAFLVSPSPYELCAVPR
Source text: as §1

[12] = target: cytochrome P450 2C19 (Homo sapiens, UniProt P33261); test: selectivity panel at 100 μM; assay type: in vitro ADME
Source text: as §1

[13] = target: cytochrome P450 2C9 (Homo sapiens, UniProt P11712); test: selectivity panel at 100 μM; assay type: in vitro ADME
Source text: as §1

[14] = test system: K. pneumoniae CI 09 (W/T); test: intrinsic antibacterial activity, MIC; assay type: cell-based; details: Klebsiella pneumoniae
[15] = test system: CphA; details: read-out: IC50 subclass B2 MBL CphA; cited from earlier work
[16] = test system: E. coli J53 (SHV5, AmpC, TEM-1); test: intrinsic antibacterial activity, MIC; assay type: cell-based; details: Escherichia coli
[17] = test system: E. aerogenes 188548 (AmpC); test: intrinsic antibacterial activity, MIC; assay type: cell-based; details: Klebsiella aerogenes
[18] = test system: E. coli 25922 (W/T); test: intrinsic antibacterial activity, MIC; assay type: cell-based; details: Escherichia coli
[19] = test system: K. pneumoniae A-1797 (KPC-2, VIM-4, CMY-4); test: microbe, parasite or virus in culture; assay type: cell-based; details: Klebsiella pneumoniae
[20] = test system: chymotrypsin; test: selectivity panel at 100 μM; assay type: biochemical, human
Source text: as §1

[21] = test system: trypsin; test: selectivity panel at 100 μM; assay type: biochemical, human
Source text: as §1

[22] = test system: K. pneumoniae UMM (SHV5, KPC-2, TEM-1); test: intrinsic antibacterial activity, MIC; assay type: cell-based; details: Klebsiella pneumoniae
[23] = target: MMP-9 (Homo sapiens, UniProt P14780); test: selectivity panel at 100 μM; assay type: biochemical
Source text: as §1

[24] = target: MMP-3 (Homo sapiens, UniProt P08254); test: selectivity panel at 100 μM; assay type: biochemical
Chain of MMP-3 (P08254 100-477): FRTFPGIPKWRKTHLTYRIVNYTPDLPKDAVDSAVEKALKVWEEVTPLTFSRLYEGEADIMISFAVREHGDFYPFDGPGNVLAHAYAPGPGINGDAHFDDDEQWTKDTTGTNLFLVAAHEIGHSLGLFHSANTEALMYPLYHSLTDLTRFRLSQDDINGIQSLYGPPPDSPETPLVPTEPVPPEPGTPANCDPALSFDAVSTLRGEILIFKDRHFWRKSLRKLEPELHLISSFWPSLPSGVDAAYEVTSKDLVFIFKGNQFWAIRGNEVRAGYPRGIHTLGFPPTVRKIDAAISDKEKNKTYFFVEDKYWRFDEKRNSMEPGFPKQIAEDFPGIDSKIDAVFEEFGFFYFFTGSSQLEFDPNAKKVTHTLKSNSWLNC
Source text: as §1

[25] = target: MMP-2 (Homo sapiens, UniProt P08253); test: selectivity panel at 100 μM; assay type: biochemical
Source text: as §1

[26] = target: MMP-1 (Homo sapiens, UniProt P03956); test: selectivity panel at 100 μM; assay type: biochemical
Source text: as §1

[27] = target: cathepsin G (Homo sapiens, UniProt P08311); test: selectivity panel at 100 μM; assay type: biochemical
Chain of cathepsin G (P08311 21-255): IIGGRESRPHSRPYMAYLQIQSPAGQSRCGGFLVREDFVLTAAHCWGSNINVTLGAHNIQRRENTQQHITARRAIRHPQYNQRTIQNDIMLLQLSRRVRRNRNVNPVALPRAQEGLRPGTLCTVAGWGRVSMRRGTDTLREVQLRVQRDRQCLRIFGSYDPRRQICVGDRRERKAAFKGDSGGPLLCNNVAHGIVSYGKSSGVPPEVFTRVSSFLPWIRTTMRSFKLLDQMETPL
Source text: as §1

[28] = target: neutrophil elastase 2 (Homo sapiens, UniProt P08246); test: selectivity panel at 100 μM; assay type: biochemical
Chain of neutrophil elastase 2 (P08246 30-267): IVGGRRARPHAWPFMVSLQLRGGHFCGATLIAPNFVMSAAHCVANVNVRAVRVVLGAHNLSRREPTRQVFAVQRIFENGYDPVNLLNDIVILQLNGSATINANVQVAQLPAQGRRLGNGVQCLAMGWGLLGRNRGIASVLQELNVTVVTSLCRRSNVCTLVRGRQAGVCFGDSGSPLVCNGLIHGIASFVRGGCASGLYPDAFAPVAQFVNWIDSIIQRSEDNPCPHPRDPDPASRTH
Source text: as §1

[29] = target: T2, Factor Xa (Homo sapiens, UniProt P00742); test: selectivity panel at 100 μM; assay type: biochemical
T2 construct: serine proteases (i.e., cathepsin G, chymotrypsin, Factor Xa, trypsin, and neutrophil elastase 2)
T2 sequence (P00742 235-488 limits assumed): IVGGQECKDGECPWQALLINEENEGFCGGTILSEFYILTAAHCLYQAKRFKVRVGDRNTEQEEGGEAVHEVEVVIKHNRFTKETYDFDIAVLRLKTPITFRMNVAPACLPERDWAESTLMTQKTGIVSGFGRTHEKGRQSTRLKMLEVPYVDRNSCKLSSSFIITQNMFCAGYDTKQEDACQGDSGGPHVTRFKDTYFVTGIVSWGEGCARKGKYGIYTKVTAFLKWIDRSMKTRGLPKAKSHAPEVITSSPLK
T2 sequence (P00742 41-179 partner limits assumed): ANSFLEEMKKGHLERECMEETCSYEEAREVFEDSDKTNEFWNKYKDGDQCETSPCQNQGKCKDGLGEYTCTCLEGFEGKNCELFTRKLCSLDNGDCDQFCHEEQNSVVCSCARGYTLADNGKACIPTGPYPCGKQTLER
Source text: as §1

[30] = test system: K. pneumoniae 11978 (OXA-48); test: intrinsic antibacterial activity, MIC; assay type: cell-based; details: Klebsiella pneumoniae
[31] = test system: P. aeruginosa 27853 (W/T); test: intrinsic antibacterial activity, MIC; assay type: cell-based; details: Pseudomonas aeruginosa
[32] = preclinical toxicity evaluation
Source text: NCT03840148 at ClinicalTrials.gov).

[33] = test system: P. aeruginosa Ps296 (AmpC, VIM-2, TEM-1); test: intrinsic antibacterial activity, MIC; assay type: cell-based; details: Pseudomonas aeruginosa
[34] = target: T1, IMP-1; details: read-out: IC50 IMP-1, literature value in parentheses; cited from earlier work
[35] = test system: S. aureus 33591 (MRSA); test: intrinsic antibacterial activity, MIC; assay type: cell-based; details: Staphylococcus aureus
[36] = test system: human primary renal proximal tubule cells; test: toxicity in renal proximal tubule cells; assay type: cell-based; details: tested up to 1000 μg/mL
[37] = test system: S. aureus 29213 (W/T); test: intrinsic antibacterial activity, MIC; assay type: cell-based; details: Staphylococcus aureus
[38] = test system: K. pneumoniae CDC-0066 (OXA-232, OXA-9, TEM-1A, CTX-M-15, OXA-1); test: MIC, rescue of β-lactams in MDR clinical isolates; assay type: cell-based; details: Klebsiella pneumoniae, read-out: FEP MIC
[39] = test system: K. pneumoniae (CTX-M-14); test: MIC against the lung model strain; assay type: cell-based; details: Klebsiella pneumoniae
[40] = test system: E. coli CDC-0055 (NDM-1, CMY-6, OXA-1); test: MIC, rescue of β-lactams in MDR clinical isolates; assay type: cell-based; details: Escherichia coli; read-out: FEP MIC
[41] = test system: K. pneumoniae ATCC BAA 1705 (KPC-2); test: MIC, rescue of β-lactams in MDR clinical isolates; assay type: cell-based; details: Klebsiella pneumoniae, BAA1705; read-out: FEP MIC
[42] = test system: K. pneumoniae UNT-065-1 expressing CTX-M-14; test: neutropenic mouse lung infection model; assay type: in vivo; details: neutropenic mice
[43] = test system: E. coli UNT-057-1 expressing CTX-M-15; test: mouse ascending urinary tract infection model; assay type: in vivo; details: mice, at day 7; BID s.c.; cefepime alone, cefepime/VNRX-5133 16:8, Caz/Avi 16:4 mg/kg/dose
[44] = test system: P. aeruginosa CDC-0356 (KPC-2, PDC-42); test: MIC, rescue of β-lactams in MDR clinical isolates; assay type: cell-based; details: Pseudomonas aeruginosa, read-out: FEP MIC
[45] = test system: E. coli CDC-0452 (NDM); test: MIC, rescue of β-lactams in MDR clinical isolates; assay type: cell-based; details: Escherichia coli; read-out: FEP MIC
[46] = test system: E. coli (CTX-M-15); test: MIC against the urinary tract model strain; assay type: cell-based; details: Escherichia coli
[47] = test system: K. pneumoniae CDC-0361 (KPC-2, SHV-12, TEM-1); test: MIC, rescue of β-lactams in MDR clinical isolates; assay type: cell-based; details: Klebsiella pneumoniae; read-out: FEP MIC
[48] = test system: P. aeruginosa CDC-0457 (VIM); test: MIC, rescue of β-lactams in MDR clinical isolates; assay type: cell-based; details: Pseudomonas aeruginosa; read-out: FEP MIC
[49] = test system: K. pneumoniae CDC-0040 (VIM-27, CTX-M-15, SHV-11, OXA-1); test: MIC, rescue of β-lactams in MDR clinical isolates; assay type: cell-based; details: Klebsiella pneumoniae, read-out: FEP MIC

Q: Which IC50 [1] does the source give for `O=C(O)[C@H]1/C(=C/CO)O[C@@H]2CC(=O)N21` [clavulanic acid] here?
A: > 100 µM

Q: And the IC50 [2]?
A: > 100 µM

Q: For `NCCN[C@H]1CC[C@H](CC(=O)N[C@H]2Cc3cccc(C(=O)O)c3OB2O)CC1` [compound 20, (3R)-3-(2-{trans-4-[(2-Aminoethyl)amino]cyclohexyl}acetamido)-2-hydroxy-3,4-dihydro-2H-1,2-benzoxaborinine-8-carboxylic Acid], which MIC [3] is on record?
A: > 128 µg/mL

Q: What about the IC50 [4] of the same compound?
A: 0.54 µM

Q: What about the “decrease in the MIC of cefepime on addition of BLI” value [5] of the same compound?
A: ≥ 512 fold

Q: What about the “activity against hERG potassium channel” value [6] of the same compound?
A: no significant activity

Q: What about the “activity against panel of 50 human enzymes and receptors” value [7] of the same compound?
A: no significant activity

Q: What about the “inhibition of subclass B3 MBL L1” value [8] of the same compound?
A: did not inhibit

Q: What about the “activity against cytochrome P450 3A4” value [9] of the same compound?
A: no significant activity

Q: And the “activity against cytochrome P450 1A2” value [10]?
A: no significant activity

Q: And the “activity against cytochrome P450 2D6” value [11]?
A: no significant activity

Q: What about the “activity against cytochrome P450 2C19” value [12] of the same compound?
A: no significant activity

Q: And the “activity against cytochrome P450 2C9” value [13]?
A: no significant activity

Q: And the MIC [14]?
A: > 128 µg/mL

Q: What about the IC50 [15] of the same compound?
A: ~2.51 µM

Q: And the MIC [16]?
A: > 128 µg/mL

Q: And the MIC [17]?
A: > 128 µg/mL

Q: And the MIC [18]?
A: > 128 µg/mL

Q: What about the MIC [19] of the same compound?
A: > 128 µg/mL

Q: What about the activity against chymotrypsin [20] of the same compound?
A: no significant activity

Q: And the activity against trypsin [21]?
A: no significant activity

Q: And the MIC [22]?
A: > 128 µg/mL

Q: And the “activity against MMP-9” value [23]?
A: no significant activity

Q: What about the “activity against MMP-3” value [24] of the same compound?
A: no significant activity

Q: What about the “activity against MMP-2” value [25] of the same compound?
A: no significant activity

Q: What about the “activity against MMP-1” value [26] of the same compound?
A: no significant activity

Q: And the “activity against cathepsin G” value [27]?
A: no significant activity

Q: And the “activity against neutrophil elastase 2” value [28]?
A: no significant activity

Q: What about the “activity against Factor Xa” value [29] of the same compound?
A: no significant activity

Q: What about the MIC [30] of the same compound?
A: > 128 µg/mL

Q: And the MIC [31]?
A: > 128 µg/mL

Q: And the “safety profile in the preclinical toxicity evaluation” value [32]?
A: clean safety profile

Q: What about the MIC [33] of the same compound?
A: > 128 µg/mL

Q: And the IC50 [34]?
A: 2.51 µM

Q: And the MIC [35]?
A: > 128 µg/mL

Q: And the “toxicity in human primary proximal tubule cells” value [36]?
A: No toxicity

Q: What about the MIC [37] of the same compound?
A: > 128 µg/mL

Q: For `O=C(O)C[C@@H]1CC[C@H](NC(=O)Cc2cccs2)B(O)O1` [vaborbactam], which IC50 [1] is on record?
A: > 100 µM

Q: What about the IC50 [2] of the same compound?
A: > 100 µM

Q: What does the source list for `CO/N=C(\C(=O)N[C@@H]1C(=O)N2C(C(=O)[O-])=C(C[N+]3(C)CCCC3)CS[C@H]12)c1csc(N)n1` [cefepime]?
A: MIC [38]: > 128 µg/mL; MIC [39]: 64 µg/mL (≈ 133 µM); MIC [40]: 128 µg/mL (≈ 266 µM); MIC [41]: 16 µg/mL (≈ 33.3 µM); log10 CFU/lung ([42]; at 24 h, cefepime alone 32, cefepime/VNRX-5133 32:16, Caz/Avi 32:8 mg/kg s.c. single dose): 9.27 ± 0.21 log10 CFU/lung; reduction in viable bacterial counts in lung tissue ([42]; single subcutaneous dose, cefepime 32 mg/kg alone or cefepime/20 32 and 16 mg/kg, 24 h): not effective; log10 CFU/kidney [43]: 7.25 ± 0.16 log10 CFU/kidney; MIC [44]: > 128 µg/mL; MIC [45]: 64 µg/mL (≈ 133 µM); MIC [46]: 128 µg/mL (≈ 266 µM); MIC [47]: 32 µg/mL (≈ 66.6 µM); MIC [48]: 16 µg/mL (≈ 33.3 µM); MIC [49]: > 128 µg/mL

Q: What does the source list for `NC(=O)[C@@H]1CC[C@@H]2CN1C(=O)N2OS(=O)(=O)O` [avibactam]?
A: IC50 [1]: > 100 µM; IC50 [2]: > 100 µM
